Data taken from patent US5023359A, “Use of organic salts of copper for the treatment of honeybee's parasitic diseases” (priority 1990, dated 1991).
Entries after “also recorded” stand apart in the source; their conditions may differ.

Tests used:
[1] = tested on: honeybees; assay: Appetency of the honeybees (consumption of syrup in small cases, batches of 100 honeybees); assay type: in vivo; conditions: for Appetency, absolute value / Appetency, 1/1 COPPER GLUCONATE: with pollen, mean ± SD; for Appetency, absolute value: pure sugar syrup 21.13±6.31; for Appetency, 1/1 COPPER GLUCONATE: 1/1 with copper gluconate; for Appetency, RELATIVE VALUES / PURE SUGAR SYRUP, AVERAGE / Appetency, RELATIVE VALUES / PURE SUGAR SYRUP, TEST 1 / Appetency, RELATIVE VALUES / PURE SUGAR SYRUP, TEST 2: relative to pure sugar syrup; for Appetency, RELATIVE VALUES / PURE SUGAR SYRUP, AVERAGE: average of tests; for Appetency, RELATIVE VALUES / PURE SUGAR SYRUP, TEST 1: test 1 (first concentration tested); for Appetency, RELATIVE VALUES / PURE SUGAR SYRUP, TEST 2: test 2 (second concentration tested)
Text: It should be noted that the pollen has been made available to the honeybees in a sufficient amount inside the small cases, without being admixed to the syrup. The determinations have been performed every day and the length of the vertical bars of the diagrams hereabove, are proportional to the deviation of the observed results. They evidence a clearly higher […] case of the utilization of the compounds of this invention. […] The results of these tests are gathered in Table 7 hereinafter in which the figures correspond to measures performed on honeybees placed in small cases, having pollen to their disposal, and are means expressed in microliters per honeybee and per day for N countings.

[2] = tested on: honeybees; assay: Phagoinhibitive action on food intake by the honeybees (small cases, 100 honeybees, syrup with copper sulphate); assay type: in vivo; conditions: FIG. 1; absorption in ml/bee/day vs g/l copper sulphate
Text: The obtained results as shown under FIG. 1 have been obtained from studies carried out in the laboratory, on batches of 100 honeybees each, located in small coops called small cases (logettes) in the absence of queen bees. The feeding made available to the honeybees, is placed in a graduated tube which allows the measurement of the ingested amount every day. The experiments have been carried out simultaneously with various small cases each receiving for the feeding of the honeybees a syrup of sucrose at 2 kg for 1 l water (i.e. 66% weight/weight) containing variable amounts of copper sulphate.

[3] = Solubility in water; conditions: for water solubility: 20° C.
[4] = tested on: honeybees; assay: Biological activity / metabolism of honeybees and productivity of hives; conditions: in vivo
[5] = tested on: honeybees; conditions: in vivo
Method: The determination of the amounts of copper inside the bodies of the honeybees is performed through atomic absorption on samples of 5 honeybees after crushing and centrifuging them, and analysis of the supernatant liquid.

[6] = tested on: honeybees; assay: Lethality / noxiousness for the honeybees; conditions: 6.75 l of syrup per hive, 0.02 to 0.5 g/l copper gluconate
[7] = tested on: glycosemia in the honeybees; assay: Glycosemia / glucose in the hemolymph of honeybees after ingestion; assay type: in vivo; conditions: FIGS. 8A-8D, 9A-9B, 10A
Text: (§1) These diagrams evidence the action of copper glyconate on the glycosemia of the honeybees after ingestion of increasing doses of this product.
(§2) FIG. 9A corresponds to experiments performed without administration of an inhibitor of trehalases
(§3) FIG. 9B is with administration of such an inhibitor.
(§4) FIG. 10A further evidences the variation of the glucosemia in the honeybees following the ingestion of copper glyconate.

[8] = tested on: Trehalases; assay: Activity of trehalases in the hemolymph of honeybees after ingestion; assay type: in vivo; conditions: FIGS. 8A-8D, 9A-9B, 10B, listed as copper glyconate
Text: as §1, §2, §3, §4

[9] = tested on: honeybees; assay: Acceptance of treated syrup by honeybees in full-size hives; assay type: in vivo; conditions: syrup of sucrose 66% w/w with copper gluconate
[10] = tested on: Varroa jacobsoni; assay: Action against Varroa jacobsoni in full-size hives: counting of fallen/remaining Varroas, efficiency; assay type: in vivo; conditions: for FALL OF THE VARROAS: 4 hives, mean ± SD
Method: Each hive was provided at its lower part with a plastic plate coated with a consistent grease. Each day at the same time, the plate was discarded and the counting of the Varroas fallen on the plate, was carried out. A grid surmounting this plate avoid that the honeybees may spontaneously proceed with the discharge of the Varroas.
The results shown in FIG. 2 have been obtained following experiments performed at full size in hives containing from 20,000 to 50,000 honeybees.
2°--The efficiency of the treatment has been defined as the ratio between the number of Varroas subsiding in the various colonies of an apiary after treatment by solutions at various concentrations, and the number of Varroas contained in the control hives, these two figures have been measured after treatment with Amitraze.
This experiment has been carried out in a series of 14 hives and the result thereof are compiled in the Table 3 figuring herein after.
These experiments allow to obtain the results of Table 3 above, and were carried out in full size on a set of 14 hives.
Measurements of the falls of the Varroas have been performed, at first, every day then every three days starting from the initiation of the delivery of the syrup.
To this end, a plate coated with a consistent grease was arranged at the bottom of each hive and protected with a grid as above-mentioned, in order to allow the counting of the Varroas. The fall begins to be significative in relation to the control hives which have only been given pure sugar syrup, after absorption by the honeybees of 3 liters of syrup per hive in 10 days.
The counting of the remaining Varroas has been performed 2 days after the last delivery of syrup while submitting each hive to a treatment of shock by means of an acaricide (in these circumstances the marketed composition sold under the Tread Name AMITRAZE).
The averages and the standard deviations have been calculated for the number of performed measures corresponding to the number of hives, this figure being mentioned between hyphens following the figures of the third column in Table 3.

| Compound | Appetency, absolute value ([1]; 0,44 M.M.) | Appetency, absolute value ([1]; 1,1 M.M.) | Appetency, 1/1 COPPER GLUCONATE [1] | Appetency, RELATIVE VALUES / PURE SUGAR SYRUP, AVERAGE [1] | Appetency, RELATIVE VALUES / PURE SUGAR SYRUP, TEST 1 [1] | Appetency, RELATIVE VALUES / PURE SUGAR SYRUP, TEST 2 [1] | supplemental effects: production of honey, activity of cleaning the hives [4] | also measured |
| --- | --- | --- | --- | --- | --- | --- | --- | --- |
| NCC(=O)[O-].NCC(=O)[O-].[Cu+2] [Copper glycinate] | 16,65 ± 5,01 microliters per honeybee and p | 15,5 ± 5,03 microliters per honeybee and p | 14,30 ± 3,52 microliters per honeybee and p | 75,85% | 78,0% | 73,7% |  |  |
| CC(O)C(=O)[O-].CC(O)C(=O)[O-].[Cu+2] (stereo not drawn) [Copper lactate] | 15,30 ± 4,24 microliters per honeybee and p | 15,60 ± 4,34 microliters per honeybee and p | 10,95 ± 3,54 microliters per honeybee and p | 73,6% | 72,4% | 73,8% |  |  |
| O=S(=O)([O-])[O-].[Cu+2] [copper sulphate] |  |  |  |  |  |  |  | phagoinhibitive (anorectic) action on food intake [2]: phagoinhibitive action |
| COPPER CITRATE | 14,71 ± 4,25 microliters per honeybee and p | 12,67 ± 3,96 microliters per honeybee and p | 12,67 ± 3,96 microliters per honeybee and p | 64,75% | 69,5% | 60,0% |  |  |
| Copper 1-aspartate |  |  |  | 55,1% | 76,5% | 69,4% |  | Appetency, absolute value ([1]; 0,61 M.M.): 17,96 ± 7,20 microliters per honeybee and p; Appetency, absolute value ([1]; 1,54 M.M.): 14,68 ± 5,40 microliters per honeybee and p; Appetency, absolute value ([1]; 2,4 M.M.): 12,49 ± 5,11 microliters per honeybee and p |
| Copper 1-glutamate | 16,18 ± 4,66 microliters per honeybee and p | 16,64 ± 7,97 microliters per honeybee and p | 11,56 ± 6,32 microliters per honeybee and p | 77,6% | 76,5% | 78,7% |  |  |
| Copper Asparaginate | 15,48 ± 4,32 microliters per honeybee and p | 11,97 ± 3,34 microliters per honeybee and p | 12,21 ± 4,29 microliters per honeybee and p | 65,0% | 73,2% | 56,3% |  | water solubility [3]: 0,5% |
| Copper glucoheptonate | 15,68 ± 2,35 microliters per honeybee and p | 14,58 ± 3,16 microliters per honeybee and p | 14,90 ± 3,64 microliters per honeybee and p | 71,6% | 74,2% | 69,0% | A similar effect has been shown | water solubility (in words) [3]: very soluble |
| Copper gluconate | 22,3 ± 2,5 microliters per honeybee and p | 21,2 ± 2,6 microliters per honeybee and p |  |  |  |  | increases the production of honey | supplemental effects: production of honey, activity of cleaning the hives ([4]; listed as copper glyconate): increase in the activity of cleaning the hives; storage of copper inside the body of the honeybees [5]: does not incur any storage of copper inside the body of the honeybees; percentage of lethality in the honeybees compared to controls [6]: no increase in the percentage of lethality in the honeybees; glycosemia / concentration of glucose in the hemolymph of the honeybees [7]: a momentaneous and significative increase of the glycosemia in the honeybees; glycosemia / concentration of glucose in the hemolymph of the honeybees ([7]; listed as copper glyconate): increase in the concentration of glucose; appetency of the honeybees (in words) ([1]; sucrose syrup 66% w/w, FIGS. 7A-7C, comparison with copper sulphate): great appentency of the honeybees; activity / concentration of trehalases in the hemolymph [8]: increase of the activity of the Trehalases; also recorded: increase in the concentration of glucose and trehalases in the hemolymph; ingestion of the syrup by the honeybees in hives [9]: The whole amount of syrup made available to the honeybees was absorbed every day; also recorded: totally ingested; FALL OF THE VARROAS ([10]; 0,2 g/l copper gluconate in syrup): 165,5 ± 84,1; FALL OF THE VARROAS ([10]; 0,5 g/l copper gluconate in syrup): 207 ± 172; FALL OF THE VARROAS ([10]; 1 g/l copper gluconate in syrup): 109 ± 141; destroying of the Varroas (in words) ([10]; in vivo): efficient even at low doses; syrup absorbed per hive when fall of Varroas begins to be significative vs control hives ([10]; per hive, in 10 days): 3 L |
| Copper gluconate/glucoheptonate |  |  |  |  |  |  | A similar effect has been shown |  |
| Copper gluconate/glutamate |  |  |  |  |  |  | A similar effect has been shown |  |
| Copper isoleucinate |  |  |  | 71,55% | 78,9% | 64,2% |  | water solubility [3]: 1%; Appetency, absolute value ([1]; 0,61 M.M.): 16,69 ± 5,03 microliters per honeybee and p; Appetency, absolute value ([1]; 1,54 M.M.): 13,57 ± 5,77 microliters per honeybee and p; Appetency, absolute value ([1]; 2,4 M.M.): 13,79 ± 5,73 microliters per honeybee and p |
| Copper leucinate | 15,83 ± 4,53 microliters per honeybee and p | 13,02 ± 2,42 microliters per honeybee and p | 13,02 ± 2,42 microliters per honeybee and p | 67,8% | 74,0% | 61,6% |  | water solubility [3]: 1% |
